Data published in US11957684B2, “Treatment of heavy menstrual bleeding associated with uterine fibroids” (Sumitomo Pharma Switzerland GmbH, priority 2016, dated 2024).
Values joined by “and” are separate entries in the source; they are usually repeats but may differ in a detail not shown here. Identical values can stand only once. Like-named read-outs stand apart in the source and are kept apart here.

Tests used:
[1] = FIG. 6C
Experimental: Table printed on a drawing sheet, FIG. 6C
(§1) The patent's description of the figure: FIGS. 6A-C are tables of plasma PK parameters for Cohort 7 in accordance with Example 4.
First reader's note: Part of a plasma PK table series (FIGS. 6A-C) for Cohort 7; each column is a fed or fasted 40 mg arm.

[2] = FIG. 7D
Text: Table printed on a drawing sheet, FIG. 7D
(§2) The patent's description of the figure: FIGS. 7A-F are tables of plasma PK parameters for Cohorts 8 to 10 in accordance with Example 4.

[3] = Example 4: pharmacodynamics (serum hormones, urine 6β-hydroxycortisol to cortisol ratio); type: in vivo, human; conditions: in vivo
Text: (§3) Descriptive statistics were used to summarize pharmacodynamic parameters: serum concentrations of estradiol (E2), FSH, LH, progesterone, growth hormone (GH), prolactin (PRL), thyrotropin, adrenocorticotropic hormone (ACTH) and urine 6β-hydroxycortisol to cortisol ratios (Q).

[4] = tested on: estradiol (E2), FSH, LH, progesterone; assay: as above; type: in vivo, human; conditions: 10 mg to 40 mg QD
Text: as §3

[5] = FIG. 6A
Experimental: Table printed on a drawing sheet, FIG. 6A
as §1
First reader's note: Plasma PK parameters for the fed and fasted 40 mg arms; the table continues in FIGS. 6B-C on other sheets.

[6] = Single dose (1 to 80 mg) and 14-day multiple dose (10 to 40 mg) PK of the Compound 1 formulation; type: in vivo; conditions: for half-life: read-out: mean plasma half-life (T1/2)
Text: However, in a preferred embodiment, the pharmacokinetics of the Compound 1 formulation are not affected by food intake.
The mean plasma AUC after a single dose was higher after fasted dosing than after postprandial or preprandial dosing. The mean plasma AUC and mean Cmax with multiple dosing were higher with preprandial than with postprandial dosing.

[7] = FIG. 5B
Text: Table printed on a drawing sheet, FIG. 5B
The patent's description of the figure: FIGS. 5A-C are tables of plasma pharmacokinetic (PK) parameters for Cohorts 1 to 6 in accordance with Example 4.
First reader's note: Plasma PK parameters by dose cohort; the series starts in FIG. 5A on another sheet and continues in FIG. 5C.

[8] = FIG. 7E
Text: Table printed on a drawing sheet, FIG. 7E
as §2
First reader's note: Each column is a dose group; according to the description these are plasma PK parameters on Day 14 (Cohorts 8 to 10).

[9] = tested on: women with endometriosis; assay: Example 8A: safety (adverse events, BMD, menstruation recovery); conditions: for Change from Baseline in BMD, mean: Week 24
Text: Study participants were premenopausal (≥20 years) Japanese women with endometriosis (EM)-associated pain who completed a preceding 12-week study and were eligible to continue for an additional 12-week treatment were enrolled. The participants has confirmed normal regular menstrual cycles (25 to 38 days per cycle) and diagnosed to have EM and EM-related dysmenorrhea and pelvic pain of at least moderate severity as determined by the physician B&B scale. The primary endpoint was the safety including assessment of change in bone mineral density (BMD) using dual energy x-ray absorptiometry, adverse events, vital signs, weight, 12-lead electrocardiograms, and clinical laboratory tests.
The present extension study consisted of an additional treatment period of 12 weeks and a follow-up period of 4 weeks. Overall treatment duration was 24 weeks from the beginning of the preceding phase 2 study. Patients were assigned to the same treatment group as the preceding phase 2 study.

[10] = FIG. 13
Text: Table printed on a drawing sheet, FIG. 13
The patent's description of the figure: FIG. 13 is a table of urine PK parameters for Cohorts 8 to 10 on Day 14 of the treatment period in accordance with Example 4.
First reader's note: Per the description these are urine PK parameters for Cohorts 8 to 10 on Day 14; each column is one dose group.

[11] = FIG. 10
Experimental: Table printed on a drawing sheet, FIG. 10
The patent's description of the figure: FIG. 10 is a table of urine PK parameters for Cohort 7 in accordance with Example 4.
First reader's note: Urine PK parameters for Cohort 7 (fed vs fasted, 40 mg); each column is a dosing arm and the rows give summary statistics per parameter.

[12] = Example 5A: plasma concentrations, population PK; type: in vivo, human
Experimental: At Visit 3, blood was drawn twice, at 0.5 to 1.5 hours postdose and at 2 to 5 hours postdose, from each evaluable subject. At Visits 4, 5 and 6, blood was drawn once immediately prior to the dose for each day, and again at 0.5 to 1.5 hours postdose and at 2 to 5 hours postdose, from each evaluable subject. Blood was drawn only once for patients who took the study drug for the day before visiting the investigational site. At Visit 7, blood was drawn only once at the visit.

[13] = human, in vivo; cited from earlier work
[14] = human, plasma, po, Day 14 of multiple doses of 10 to 40 mg

For CONC(=O)Nc1ccc(-c2sc3c(c2CN(C)C)c(=O)n(-c2ccc(OC)nn2)c(=O)n3Cc2c(F)cccc2F)cc1 [Compound 1, N-(4-(1-(2,6-difluorobenzyl)-5-((dimethylamino)methyl)-3-(6-methoxy-3-pyridazinyl)-2,4-dioxo-1,2,3,4-tetrahydrothieno[2,3-d]pyrimidin-6-yl)phenyl)-N′-methoxyurea], the “CL/F (L/hr) | Mean” value [1] was 739.7 L/h and 445.4 L/h, the “Vz/F (L) | Mean” value [1] was 17932.0 L and 11042.3 L and the “Tmax (hr) | Median” value [2] was 0.980 h and 1.480 h and 1.000 h. For the same molecule, the “effect on endogenous GH, PRL, thyrotropin, and ACTH” value [3] was “no apparent effect”, the “ovulation (post-ovulation progesterone increase)” value [4] was “prevented ovulation” and the “AUC (O-inf) (ng*hr/mL) | Mean” value [5] was 63.437 ng·h/mL and 125.275 ng·h/mL. The “AUC (O-tlqc) (ng*hr/mL) | Mean” value [5] was 55.792 ng·h/mL and 110.782 ng·h/mL, the half-life ([6]; human, plasma, po, single dose 1 to 80 mg) was 7.1 to 19.8 h and the Tmax [6, 14] was 1 to 1.5 h. For the same molecule, the half-life [6, 14] was 19.2 to 24.6 h, the “day by which steady state was reached” value ([6]; multiple dosing) was no more than 7 days and the “Tmax (hr) | Median” value [7] was 0.775 h and 1.015 h and 1.500 h. The “CL/F (L/hr) | Mean” value [8] was 569.7 L/h and 436.3 L/h and 373.4 L/h, the “Vz/F (L) | Mean” value [8] was 5041.8 L and 3618.3 L and 3086.5 L and the “Menstruation Recovery Period, mean” value ([9]; 10 mg) was 21 days. The “Any TEAEs” value ([9]; 10 mg (N = 103)) was 89 N, the Headache ([9]; 10 mg (N = 103)) was 5 N and the Hot flush ([9]; 10 mg (N = 103)) was 12 N. The Hyperhidrosis ([9]; 10 mg (N = 103)) was 4 N, the Menorrhagia ([9]; 10 mg (N = 103)) was 11 N and the “Menstruation Irregular” value ([9]; 10 mg (N = 103)) was 21 N. It also gave a Metrorrhagia ([9]; 10 mg (N = 103)) of 28 N, a Nasopharyngitis ([9]; 10 mg (N = 103)) of 31 N and an Oligomenorrhea ([9]; 10 mg (N = 103)) of 12 N. The “Serious TEAEs” value ([9]; 10 mg (N = 103)) was 0 N, the “TEAEs Leading to Study Drug Discontinuation” value (“TEAEs Leading” for short) ([9]; 10 mg (N = 103)) was 1 N and the “TEAEs Related to Study Drug” value ([9]; 10 mg (N = 103)) was 68 N. For the same molecule, the “TEAEs, Mild” value ([9]; 10 mg (N = 103)) was 83 N, the “TEAEs, Moderate” value ([9]; 10 mg (N = 103)) was 6 N and the “TEAEs, Severe” value ([9]; 10 mg (N = 103)) was 0 N. The “Change from Baseline in BMD, mean” value ([9]; 10 mg) was −1.6%, the “Menstruation Recovery Period, mean” value ([9]; 20 mg) was 26 days and the “Any TEAEs” value ([9]; 20 mg (N = 100)) was 96 N. The Headache ([9]; 20 mg (N = 100)) was 12 N, the Hot flush ([9]; 20 mg (N = 100)) was 23 N and the Hyperhidrosis ([9]; 20 mg (N = 100)) was 11 N. For the same molecule, the Menorrhagia ([9]; 20 mg (N = 100)) was 16 N, the “Menstruation Irregular” value ([9]; 20 mg (N = 100)) was 21 N and the Metrorrhagia ([9]; 20 mg (N = 100)) was 36 N. The Nasopharyngitis ([9]; 20 mg (N = 100)) was 31 N, the Oligomenorrhea ([9]; 20 mg (N = 100)) was 12 N and the “Serious TEAEs” value ([9]; 20 mg (N = 100)) was 2 N. For the same molecule, the “TEAEs Leading” value ([9]; 20 mg (N = 100)) was 7 N, the “TEAEs Related to Study Drug” value ([9]; 20 mg (N = 100)) was 88 N and the “TEAEs, Mild” value ([9]; 20 mg (N = 100)) was 82 N. For the same molecule, the “TEAEs, Moderate” value ([9]; 20 mg (N = 100)) was 14 N, the “TEAEs, Severe” value ([9]; 20 mg (N = 100)) was 0 N and the “Change from Baseline in BMD, mean” value ([9]; 20 mg) was −2.6%. The “Menstruation Recovery Period, mean” value ([9]; 40 mg) was 37 days, the “Any TEAEs” value ([9]; 40 mg (N = 103)) was 98 N and the Headache ([9]; 40 mg (N = 103)) was 11 N. The Hot flush ([9]; 40 mg (N = 103)) was 55 N, the Hyperhidrosis ([9]; 40 mg (N = 103)) was 10 N and the Menorrhagia ([9]; 40 mg (N = 103)) was 15 N. The “Menstruation Irregular” value ([9]; 40 mg (N = 103)) was 7 N, the Metrorrhagia ([9]; 40 mg (N = 103)) was 30 N and the Nasopharyngitis ([9]; 40 mg (N = 103)) was 31 N. The Oligomenorrhea ([9]; 40 mg (N = 103)) was 1 N, the “Serious TEAEs” value ([9]; 40 mg (N = 103)) was 0 N and the “TEAEs Leading” value ([9]; 40 mg (N = 103)) was 2 N. The “TEAEs Related to Study Drug” value ([9]; 40 mg (N = 103)) was 91 N, the “TEAEs, Mild” value ([9]; 40 mg (N = 103)) was 83 N and the “TEAEs, Moderate” value ([9]; 40 mg (N = 103)) was 15 N. The “TEAEs, Severe” value ([9]; 40 mg (N = 103)) was 0 N, the “Change from Baseline in BMD, mean” value ([9]; 40 mg) was −4.9% and the “Ae (0-24) (ng) | Median” value [10] was 141057.00 ng. For the same molecule, the “CLr (L/hr) | Mean” value [10] was 6.4821 L/h and 6.7992 L/h and 6.8776 L/h, the “Fe (%) | Mean” value [10] was 1.335% and 1.930% and 1.955% and the “CLr (L/hr) | Mean” value [11] was 6.1047 L/h and 6.7583 L/h. For the same molecule, the “Fe (%) | Mean” value [11] was 0.919% and 1.963%, the increase in relative bioavailability, 40 mg vs 10 mg ([12]; human, plasma, oral, population PK, read-out: relative bioavailability higher in 40-mg compared with 10-mg) was 30.9% and the “absorption rate constant (ka)” value ([12]; population estimate) was 0.416 h⁻¹. The “apparent oral clearance (CL/F)” value ([12]; population estimate) was 198 L/h.

For CCNC(=O)[C@@H]1CCCN1C(=O)[C@H](CCCNC(=N)N)NC(=O)[C@H](CC(C)C)NC(=O)[C@@H](CC(C)C)NC(=O)[C@H](Cc1ccc(O)cc1)NC(=O)[C@H](CO)NC(=O)[C@H](Cc1c[nH]c2ccccc12)NC(=O)[C@H](Cc1c[nH]cn1)NC(=O)[C@@H]1CCC(=O)N1 [leuprolide acetate, reference compound], the “bone mineral density decrease” value [13] is given as −2.21±1.709% and the “women with a decrease of more than 5.0% in bone mineral density” value [13] is given as 10 of 157.
